Tests used:
Assay type in all cases: in vivo
[1] = system: scopolamine-induced amnesia; experiment: Y-shaped maze test, spontaneous alternation behavior, scopolamine-induced amnesia; conditions: once orally 60 min before test, ddY mice
Method: Male mice (n=15 to 75) of the ddY strain (approximately 7-week old) were used, and they received food and water ad lib. Test substances used were 0.05 nmol/kg weight (0.1 μg/kg weight), 0.5 nmol/kg weight (1 μg/kg weight), 1.5 nmol/kg weight (3 μg/kg weight), 5 nmol/kg weight (10 μg/kg weight), 50 nmol/kg weight (100 μg/kg weight), and 500 nmol/kg weight (1000 μg/kg weight) of Asn-Ile-Pro-Pro-Leu-Thr-Gln-Thr-Pro-Val-Val-Val-Pro-Pro-Phe-Leu-Gln-Pro-Glu. The test substances were administered to the mice once orally 60 minutes before the execution of a Y-shaped maze test for evaluation of spontaneous alternation behavior. Further, 30 minutes before the execution of the Y-shaped maze test, 1 mg/kg weight of scopolamine was subcutaneously administered on the backs of the mice in order to induce brain dysfunction (dysmnesia and/or cognitive impairment) in the mice. In the Y-shaped maze test, a Y-shaped maze was used as an experimental device, in which the length of each arm was 40 cm, the height of the wall was 12 cm, the width of the floor was 3 cm, and the width of the upper part was 10 cm, and three arms were connected to each other at an angle of 120 degrees. Each of the mice was placed at the tip of any one of the arms of the Y-shaped maze, and then let go to freely explore in the maze for 8 minutes. The sequence of the arms each of the mice entered was recorded. The number of entries by each of the mice for each of the arms during the measurement time was counted to be the total number of entries. In the sequence, the combination in which three different arms were selected in succession (for example, with the three arms respectively called A, B, and C, if the sequence of the arms entered is ABCBACACB, the count is 4 inclusive of overlapping) was investigated, and the number of the count was used as the number of spontaneous alternation behavior. The percentage of spontaneous alternation behavior was calculated by dividing the number of spontaneous alternation behavior by a number obtained by subtracting 2 from the total number of entries, and multiplying a resultant number by 100. The percentage of spontaneous alternation behavior was used as an indicator. […] The measured values were expressed in the form of mean±standard error for each group. A significant difference between the control group and the scopolamine control group was calculated using Student's t-test. Further, a significant difference between the scopolamine control group and the NIPPLTQTPVVVPPFLQPE-administered groups was calculated using Dunnett's multiple comparison test after one-way analysis of variance.
Male mice (n=15 to 45) of the ddY strain (approximately 7-week old) were used, and they received food and water ad Iib. Test substances used were: 50 nmol/kg weight (100 μg/kg weight) of Asn-Ile-Pro-Pro-Leu-Thr-Gln-Thr-Pro-Val-Val-Val-Pro-Pro-Phe-Leu-Gln-Pro-Glu; 50 nmol/kg weight (120 μg/kg weight) of […]([…]); 50 nmol/kg weight (100 μg/kg weight) of Ile-Pro-Pro-Leu-Thr-Gln-Thr-Pro-Val-Val-Val-Pro-Pro-Phe-Leu-Gln-Pro-Glu (IPPLTQTPVVVPPFLQPE); 50 nmol/kg weight (100 μg/kg weight) of Asn-Ile-Pro-Pro-Leu-Thr-Gln-Thr-Pro-Val-Val-Val-Pro-Pro-Phe-Leu-Gln-Pro (NIPPLTQTPVVVPPFLQP) (SEQ ID NO: 18); and 50 nmol/kg weight (50 μg/kg weight) of Thr-Gln-Thr-Pro-Val-Val-Val-Pro-Pro-Phe (TQTPVVVPPF) (SEQ ID NO: 19). The test substances were administered to the mice once orally 60 minutes before the execution of a Y-shaped maze test for evaluation of spontaneous alternation behavior. Further, 30 minutes before the execution of the Y-shaped maze test, 1 mg/kg weight of scopolamine was subcutaneously administered on the backs of the mice in order to induce brain dysfunction (dysmnesia and/or cognitive impairment) in the mice. […]

[2] = system: scopolamine-induced amnesia; experiment: as above; conditions: once orally 60 min before test, scopolamine 1 mg/kg s.c., ddY mice
[3] = system: memory maintenance; experiment: novel object recognition test for evaluation of memory maintenance; conditions: Example 4, FIG. 4; 500 nmol/kg weight (1000 μg/kg weight), once orally 60 min before training trial; retention trial 48 hours later; ddY mice
Method: Male mice (n=14 to 15) of the ddY strain (approximately 7-week old) were used, and they received food and water ad lib. A test substance used was 500 nmol/kg weight (1000 μg/kg weight) of Asn-Ile-Pro-Pro-Leu-Thr-Gln-Thr-Pro-Val-Val-Val-Pro-Pro-Phe-Leu-Gln-Pro-Glu. The test substance was administered to the mice once orally 60 minutes before the execution of a novel object recognition test for evaluation of memory maintenance. In the novel object recognition test, a 30 cm x30 cm x30 cm box was used as an experimental device. For acclimation, each of the mice was placed in the experimental device with floor bedding for 5 minutes, and then allo the aminals to go around freely in the device. On the next day of the acclimation treatment, a training trial was performed. In the training trial, two among three kinds of objects were selected and disposed in the experimental device (the objects were arranged along the central line of the floor at positions 8 cm away from the walls on two sides, and the positions were designated as X1 and X2). […] In the training trial and the retention trial, the time (seconds) the mice spent exploring each object by approaching within 1 cm therefrom was measured (except the time when the mice were riding on the object). For each of the training trial and the retention trial, an exploration time ratio between the two objects was calculated. […]

[4] = Example 2, FIG. 2, 50 nmol/kg weight, scopolamine 1 mg/kg s.c., Dunnett's test vs scopolamine control
[5] = Example 6, FIG. 6, 500 nmol/kg weight, Student's t-test
[6] = Example 3, FIG. 3, 500 nmol/kg weight (1000 μg/kg weight), Dunnett's test

Sequence | prophylactic activity against amnesia (percentage of spontaneous alternation behavior) [1, 4] | prophylactic activity against amnesia (percentage of spontaneous alternation behavior) [2, 5] | further results
IPPLTQTPVVVPPFLQPE (Synthetic functional peptide) [Ile-Pro-Pro-Leu-Thr-Gln-Thr-Pro-Val-Val-Val-Pro-Pro-Phe-Leu-Gln-Pro-Glu] | had a prophylactic activity against amnesia | – | –
LTQTPVVVPPFLQPE (Synthetic functional peptide) [Leu-Thr-Gln-Thr-Pro-Val-Val-Val-Pro-Pro-Phe-Leu-Gln-Pro-Glu] | – | had a prophylactic activity against amnesia | –
NIPPLTQTPVVVPPFLQP (Synthetic comparative example) [Asn-Ile-Pro-Pro-Leu-Thr-Gln-Thr-Pro-Val-Val-Val-Pro-Pro-Phe-Leu-Gln-Pro] | did not show any prophylactic activity against amnesia | – | –
NIPPLTQTPVVVPPFLQPE (Synthetic functional peptide) [Asn-Ile-Pro-Pro-Leu-Thr-Gln-Thr-Pro-Val-Val-Val-Pro-Pro-Phe-Leu-Gln-Pro-Glu] | had a prophylactic activity against amnesia | – | memory strengthening activity (exploration time ratio of novel object) [3]: had a memory strengthening activity; prophylactic activity against amnesia (percentage of spontaneous alternation behavior) [2, 6]: had a prophylactic activity against amnesia; prophylactic activity against amnesia (percentage of spontaneous alternation behavior) ([1]; Example 1, FIG. 1, 0.05 nmol/kg weight to 500 nmol/kg weight (0.1 to 1000 μg/kg weight), scopolamine 1 mg/kg s.c. 30 min before, Dunnett's test): had a prophylactic activity against amnesia
NIPPLTQTPVVVPPFLQPEVM (Synthetic functional peptide) | had a prophylactic activity against amnesia | – | –
PLTQTPVVVPPFLQPE (Synthetic functional peptide) [Pro-Leu-Thr-Gln-Thr-Pro-Val-Val-Val-Pro-Pro-Phe-Leu-Gln-Pro-Glu] | – | had a prophylactic activity against amnesia | –
PPLTQTPVVVPPFLQPE (Synthetic functional peptide) [Pro-Pro-Leu-Thr-Gln-Thr-Pro-Val-Val-Val-Pro-Pro-Phe-Leu-Gln-Pro-Glu] | – | – | prophylactic activity against amnesia (percentage of spontaneous alternation behavior) [2, 6]: had a prophylactic activity against amnesia
PVVVPPFLQPE (Synthetic functional peptide) [Pro-Val-Val-Val-Pro-Pro-Phe-Leu-Gln-Pro-Glu] | – | had a prophylactic activity against amnesia | –
TQTPVVVPPF (Synthetic comparative example) [Thr-Gln-Thr-Pro-Val-Val-Val-Pro-Pro-Phe] | did not show any prophylactic activity against amnesia | – | –
TQTPVVVPPFLQPE (Synthetic functional peptide) [Thr-Gln-Thr-Pro-Val-Val-Val-Pro-Pro-Phe-Leu-Gln-Pro-Glu] | – | – | prophylactic activity against amnesia (percentage of spontaneous alternation behavior) ([2]; Example 5, FIG. 5, 50 nmol/kg weight (80 μg/kg weight), Student's t-test): had a prophylactic activity against amnesia
VVVPPFLQPE (Synthetic functional peptide) [Val-Val-Val-Pro-Pro-Phe-Leu-Gln-Pro-Glu] | – | had a prophylactic activity against amnesia | –

Source: US8569241B2, “Composition for improving brain function and method for improving brain function” (Calpis Co., Ltd., priority 2009, dated 2013)
